Read-outs that look alike come from different tables or passages of the source.
Legend:
[1] = test system: Haemaphysalis longicornis; assay: Tick (Haemaphysalis longicornis) control test on body surface of mouse; format: in vivo, Haemaphysalis longicornis on mice (ICR); settings: 20 μL of 1,000-fold dilution of agent prepared as in Formulation Example 11 on mouse body surface, larval ticks, 3 days after release
Experimental: Ventral fur was shaved from an area having a diameter of about 2 cm in mice (ICR, 5-week-old males), and a 15 mL polystyrene conical tube cut to a length of about 1.5 cm was attached to the shaved area using instant glue.
An amount of 20 μL of a 1,000-fold dilution of the pest control agent prepared in the same way as in Formulation Example 11 was added dropwise onto the body surface of the mice within the attached tube. After the solution was allowed to dry thoroughly, ten or more larval ticks (Haemaphysalis longicornis) were released into the tube, which was then capped. Three days after released, the numbers of live and dead ticks were counted, and the mortality was calculated from the following formula. Blood-feeding inhibition (%)=100−[number of feeding ticks/(number of live ticks+number of dead ticks)]×100

small brown planthopper = assay: whole plant or invertebrate; format: in vivo; settings: Laodelphax striatellus, in Triticum aestivum, 96 h
How it was run: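 Roots of 48-h wheat seedlings took up compound in 10% acetone/water for 72 h, then ten second-instar larvae were released per seedling and held at 25 °C (16 h light/8 h dark). Mortality counted four days after release; two replications.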

cotton aphid = assay: whole plant or invertebrate; format: in vivo; settings: Aphis gossypii, foliar
How it was run: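 Cucumber leaf discs (2.0 cm) sprayed with compound in 50% acetone/water with 0.05% Tween 20, air-dried, then infested with first-instar cotton aphids. Held at 25 °C under 16 h light/8 h dark; mortality counted after 3 days, two replicates.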

house fly = assay: House fly control test (local application); format: in vivo; parameters: dose or concentration left out as unconfirmed
Experimental: The inventive compounds prepared to a predetermined concentration in acetone were applied in an amount of 1 μL (per insect) to the backs of adult female flies raised indoors. Following chemical treatment, the flies were transferred to plastic cups, with five flies being placed in each cup, and held in an incubation chamber at 25° C. (16-hour period of light, 8-hour dark period). Twenty-four hours after treatment, the state of knockdown among the flies was observed, and the knockdown rate was calculated from the following formula. The test was carried out as two replications. Knockdown rate (%)=[number of knocked down insects/(number of live insects+number of knocked down insects)]×100

rice leaf bug = assay: whole plant or invertebrate; format: in vivo; settings: foliar, 72 h
How it was run: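 Four-day wheat seedling shoots dipped 30 s in compound solution (50% acetone/water, 0.05% Tween 20), air-dried, then infested with two second-instar larvae per glass cylinder at 25 °C, 16 h light/8 h dark. Mortality (%) counted after 3 days.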

[2] = test system: small brown planthopper having a low susceptibility to insecticides; assay: Small brown planthopper control test, pests having a low susceptibility to insecticides (soil drenching); format: in vivo; settings: both lines (susceptible and field-collected)
Experimental: Rice seedlings grown in pots were subjected to soil drenching treatment with solutions of the inventive compounds at a predetermined concentration prepared to 10% acetone/water. Three days after treatment, ten second-instar small brown planthopper larvae having a low susceptibility to insecticides were released onto each seedling. The seedlings and insects were then held in an incubation chamber at 25° C. (16-hour period of light, 8-hour dark period). Three days after released, the numbers of live and dead insects were counted, and the mortality was calculated from the following formula. The test was carried out as two replications. Mortality (%)=[number of dead insects/(number of live insects+number of dead insects)]×100
The pests used in this test were insects that had been raised indoors for successive generations over a long period of time (susceptible line), and insects that had been raised indoors for successive generations after being collected in 2006 within Kumamoto Prefecture (field-collected line).

common cutworm = assay: whole plant or invertebrate; format: in vivo; settings: for Insecticidal effects (mortality), common cutworm third-instar larvae: foliar application
How it was run: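 Cabbage leaf discs (5.0 cm) sprayed with compound at a set concentration in 50% acetone/water with 0.05% Tween 20, air dried, then infested with third-instar larvae. Held at 25° C., 16 h light/8 h dark; dead and live larvae counted after 3 days, two replicates, mortality (%) = dead/(live+dead)×100.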

[3] = read-out: Insecticidal effects (mortality), small brown planthopper second-instar larvae
[4] = read-out: Insecticidal effects (mortality), cotton aphid first-instar larvae

O=C(N=c1ccccn1Cc1ccc(Cl)nc1)C(F)(F)F [Compound 212, N-[1-((6-chloropyridin-3-yl)methyl)pyridin-2(1H)-ylidene]-2,2,2-trifluoroacetamide]
Blood-feeding inhibition [1]: 91% | mortality at 20 µg/seedling (small brown planthopper): ≥ 80% | mortality at 0.0078 mg/seedling (small brown planthopper; [3]): 50% | mortality at 0.016 mg/seedling (small brown planthopper; [3]): 50% | mortality at 0.031 mg/seedling (small brown planthopper; [3]): 100% | mortality at 0.063 mg/seedling (small brown planthopper; [3]): 100% | mortality at 0.125 mg/seedling (small brown planthopper; [3]): 100% | mortality at 0.25 mg/seedling (small brown planthopper; [3]): 100% | mortality at 0.5 mg/seedling (small brown planthopper; [3]): 100% | mortality at 2 mg/seedling (small brown planthopper; [3]): 100% | mortality at 20 mg/seedling (small brown planthopper; [3]): 100% | mortality at 1.25 ppm (cotton aphid; [4]): 100% | mortality at 5 ppm (cotton aphid; [4]): 95% | mortality at 20 ppm (cotton aphid; [4]): 100% | mortality at 100 ppm (cotton aphid; [4]): 100% | mortality at 500 ppm (cotton aphid; [4]): 100% | mortality at 20 ppm (cotton aphid; in Cucumis sativus, 72 h): ≥ 80% | mortality at 100 ppm (cotton aphid; in Cucumis sativus, 72 h): ≥ 80% | mortality at 500 ppm (cotton aphid; in Cucumis sativus, 72 h): ≥ 80% | Insecticidal effects (mortality), adult houseflies (house fly): 100 | mortality at 50 ppm (rice leaf bug): ≥ 80% | Mortality ([2]; 0.005 mg/seedling soil drenching): at least 90% | Mortality ([2]; 0.01 mg/seedling soil drenching): 100% | Insecticidal effects (mortality), common cutworm third-instar larvae (common cutworm; 100 ppm): 30 | Insecticidal effects (mortality), common cutworm third-instar larvae (common cutworm; 500 ppm): 100 | mortality at 500 ppm (common cutworm; foliar, 72 h): ≥ 80%

From patent US10085449B2, “N-[1-((6-chloropyridin-3-yl)methyl)pyridin-2(1H)-ylidene]-2,2,2- trifluoroacetamide for control of agricultural/horticultural pests” (priority 2010, dated 2018)
